Values quoted from earlier work as cited in patent US20120142730A1 (priority 2010, published 2012).
Where two headings read alike, the source gives them in different places.

Test system: relapsing MS
Details: cited from earlier work; for Development of active MRI lesions in relapsing MS: Polman, 2005

CCN(C(=O)c1c(O)c2c(Cl)cccc2n(C)c1=O)c1ccccc1 [Laquinimod, laquinimod]
MRI and clinical effect as compared to placebo (0.3 mg/day oral dose, Comi, 2007): neither MRI nor clinical effect | Development of active MRI lesions in relapsing MS (0.3 mg/day oral dose): reduce development of active MRI lesions | Development of active MRI lesions in relapsing MS: reduce development of active MRI lesions
